# According to patent US20100184603A1, “Alcohol alkoxylates, compositions containing these, and use of the alcohol alkoxylates as adjuvants for the agrochemical field” (BASF SE, priority 2007, published 2010):
# System: leaf rust of wheat "Puccinia recondita"
# Test: Biotest: curative control of leaf rust of wheat
# Type: in vivo
# Conditions: wheat seedlings "Kanzler", curative spray 2 days after inoculation; 50 ppm epoxiconazole without adjuvant; disease percent of total leaf area after 10 days
# Protocol: 125 g/l epoxiconazole were ground together with in each case 20 g/l dispersant (Atlas G 5000^1, Synperonic A^1) and 50 g/l propylene glycol in aqueous medium in a stirred-ball mill (dyno-mill) until a particle size of 80%<2 μm was reached. To the mixture were added 3 g/l per liter antifoam, for example Rhodorsil 426^2, 3 g/l thickener, for example Rhodopol 23^2, and a biocide, for example Acticide MBS^3. The respective adjuvant, in aqueous solution or in a solvent, for example Solvesso, was stirred into this mixture, so that the final concentration of the formulation is composed of 62.5 g/l epoxiconazole and 125 g/l adjuvant. ^1Uniquema/Croda^2Rhodia^3Thor Chemie
# Biotest (Curative Control of Leaf Rust of Wheat):
# Leaves of wheat seedlings of the species “Kanzler” which had been grown in pots were dusted, in the two-leaf stage, with spores of leaf rust of wheat “Puccinia recondita” and incubated for 2 days in the greenhouse at high atmospheric humidity. In fully automated spray cabins, the plants were then sprayed with the formulations which comprised the active ingredients and adjuvants specified hereinbelow. The spray mixtures comprised 50 ppm epoxiconazole and 100 ppm adjuvant. […] After 10 days, the extent of the leaf rust disease was determined visually as disease percent of the total leaf area. 3 pots were evaluated for each combination.
structure (smiles),measurement,value
Fc1ccc([C@]2(Cn3cncn3)O[C@H]2c2ccccc2Cl)cc1 (racemic) [Epoxiconazole],% infection,40%
